Values quoted from earlier work as cited in US20120128764A1, “CONTROLLED-RELEASE COMPOSITIONS COMPRISING A PROTON PUMP INHIBITOR” (Aptalis Pharmatech, Inc., priority 2009, published 2012).

Legend:
[1] = not given; remark: listed apart in the source

| solubility in phosphate buffer (phosphate buffer at pH 7.4) | solubility in water (water) | mean Tmax ([1]; after oral administration) | half-life (t1/2) ([1]; elimination) [h] | accumulation upon multiple dosing ([1]; multiple dosing) | dose proportionality of Cmax and AUC ([1]; over 10 mg to 80 mg doses) | Structure (SMILES) |
| --- | --- | --- | --- | --- | --- | --- |
| very slightly soluble | freely soluble | – | – | – | – | COc1ccnc(C[S+]([O-])c2nc3ccc(OC(F)F)cc3[nH]2)c1OC (stereo not drawn) [Pantoprazole sodium sesquihydrate] |
| – | – | approximately 90 minutes | 1.8 | does not accumulate | dose proportional | COc1ccnc(C[S+]([O-])c2nc3ccc(OC(F)F)cc3[nH]2)c1OC (stereo not drawn) [Pantoprazole, 5-(difluoromethoxy)-2-[(3,4-dimethoxypyridin-2-yl)methylsulfinyl]-3H-benzoimidazole] |
